# Measured values from PubChem BioAssay (NCI).
# Where “and” joins values, the source holds several entries; their conditions need not be identical. Equal values may be shown once.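 In this assay, cells in 96-well plates receive the compound at five concentrations for 48 hours. Endpoints are linearly interpolated between the surrounding concentrations. GI50 marks 50% less growth. TGI is the concentration that stops growth completely.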
# Legend:
# Assay in all cases: NCI anticancer screen, dose series, 48 h
# CAKI-1 renal = test system: CAKI-1 renal
# SW-620 colon = test system: SW-620 colon
# COLO 205 colon = test system: COLO 205 colon
# ACHN renal = test system: ACHN renal
# SF-268 CNS = test system: SF-268 CNS
# T-47D breast = test system: T-47D breast
# MOLT-4 leukemia = test system: MOLT-4 leukemia
# HS 578T breast = test system: HS 578T breast
# UO-31 renal = test system: UO-31 renal
# K-562 leukemia = test system: K-562 leukemia
Compound,GI50 (CAKI-1 renal),TGI (CAKI-1 renal),GI50 (SW-620 colon),TGI (SW-620 colon),GI50 (COLO 205 colon),TGI (COLO 205 colon),GI50 (ACHN renal),TGI (ACHN renal),GI50 (SF-268 CNS),TGI (SF-268 CNS),GI50 (T-47D breast),TGI (T-47D breast),GI50 (MOLT-4 leukemia),TGI (MOLT-4 leukemia),GI50 (HS 578T breast),TGI (HS 578T breast),GI50 (UO-31 renal),TGI (UO-31 renal),GI50 (K-562 leukemia),TGI (K-562 leukemia) [µM]
CSc1ccc2c(c1)N(CCC1CCCCN1C)c1ccccc1S2 (stereo not drawn),3230 nM and 4910 nM,13 µM and 18.3 µM,10800 nM and 2520 nM,24.6 µM and 7.23 µM,6220 nM and 3570 nM,24 µM and 13.2 µM,4390 nM and 3750 nM,15.2 µM and 13.5 µM,7700 nM and 4850 nM,21.6 µM and 17.7 µM,5820 nM and 3400 nM,23.3 µM and 11.4 µM,3610 nM and 3130 nM,13.6 µM and 10 µM,6890 nM and 3010 nM,28.1 µM and 13.2 µM,3260 nM and 3610 nM,14.5 µM and 15.4 µM,2130 nM,4.4
Cc1[nH]c(C(=O)Nc2ccccc2OC2CCNCC2)c(Cl)c1Cl,781 nM,2.11 µM,990 nM,2.39 µM,856 nM,1.63 µM,995 nM,2.05 µM,760 nM,1.65 µM,987 nM,2.09 µM,1310 nM,3.73 µM,898 nM,1.9 µM,656 nM,1.32 µM,1660 nM,5.26
Cc1cc2nc3ccc(=[N+](C)C)cc-3sc2cc1N,2300 nM and 1560 nM,12.8 µM and > 55.9 µM and 10.2 µM,289 nM and 1130 nM,1.24 µM and 9.68 µM and 3.05 µM,745 nM and 309 nM,2.19 µM and 9.28 µM and 0.94 µM,844 nM and 1100 nM,,351 nM and 956 nM,,475 nM and 722 nM,4.52 µM and 28.8 µM and 6.75 µM,237 nM and 363 nM,,1490 nM and 311 nM,,1730 nM and 1610 nM,9.11 µM and 25.1 µM and 10.8 µM,201 nM and 318 nM,
O=C(N=Nc1c(O)[nH]c2ccccc12)c1oc2ccccc2c1CN1CCN(c2ccccc2)CC1,2420 nM,9.61 µM,1500 nM,7.47 µM,2770 nM,> 50 µM,1020 nM,2.53 µM,1970 nM,13.8 µM,1380 nM,5.41 µM,1960 nM,> 50 µM,1690 nM,10.4 µM,1010 nM,2.94 µM,1980 nM,> 50
C[C@]12CC[C@H]3[C@@H](CCC4=CC(=O)CC[C@@]43C)[C@@H]1CC[C@@H]2C(=O)COS(=O)(=O)c1ccc(Br)cc1,,19.7 µM,,> 44.5 µM,,53.1 µM,,27.6 µM,,34.6 µM,,37.5 µM,,,,73.6 µM,,3.5 µM,,31.7
CSCC[C@H](NC(=O)[C@H](CC(C)C)NC(=O)[C@@H](Cc1ccccc1)NC(=O)CNC(=O)[C@@H](NC(=O)[C@H](C)NC(=O)[C@H](Cc1c[nH]c2ccccc12)NC(=O)[C@H](CCC(N)=O)NC(=O)[C@H](N)CC(N)=O)C(C)C)C(N)=O,,> 12.5 µM,,> 12.5 µM,,> 12.5 µM,,> 12.5 µM,,> 12.5 µM,,> 12.5 µM,,> 12.5 µM,,> 12.5 µM,,,,> 12.5
COc1ccc2c(c1)C1OCCNC1CC2 (stereo not drawn),,> 100 µM,,> 100 µM,,> 100 µM,,> 100 µM,,> 100 µM,,> 100 µM,,> 100 µM,,> 100 µM,,> 100 µM,,> 100
CCCC[n+]1c(/C=C\c2c(OC)cc(OC)cc2OC)ccc2ccccc21,2730 nM,11.5 µM,814 nM,10 µM,332 nM,1.19 µM,3010 nM,11.8 µM,2030 nM,10.3 µM,205 nM,2.06 µM,1640 nM,8.92 µM,1280 nM,8.64 µM,2220 nM,8.26 µM,294 nM,> 38.6
NC(=S)N/N=C/c1ccc(N)cn1,,> 10 µM,,> 10 µM,,8.03 µM,,7.65 µM,,> 10 µM,,> 10 µM,,> 10 µM,,> 10 µM,,6.97 µM,,> 10
NCCCCCCCCCCCn1c2c(c3ccccc3c1=O)C(=O)c1ccccc1-2,8620 nM,63.5 µM,1960 nM,3.76 µM,2240 nM,5.45 µM,3110 nM,8.11 µM,6050 nM,49.1 µM,4420 nM,26.6 µM,1970 nM,3.93 µM,22400 nM,52.6 µM,2010 nM,4.07 µM,2310 nM,4.58
CC[C@@H](C(=O)[C@H](C)[C@H](O)[C@@H](C)[C@H]1O[C@H]([C@@H](CC)C(=O)O)CC[C@H]1C)C1O[C@]2(C=C[C@@H](O)[C@]3(CC[C@@](C)([C@H]4CC[C@](O)(CC)[C@H](C)O4)O3)O2)[C@H](C)C[C@@H]1C (stereo partly drawn),637 nM,13.9 µM,966 nM,10.7 µM,203 nM,4.68 µM,770 nM,40.2 µM,1140 nM,16.2 µM,125 nM,16.7 µM,1260 nM,4.75 µM,239 nM,18.4 µM,1420 nM,23.9 µM,223 nM,7.06
CO[C@]12C=C/C(=C(/C(=O)OCc3cccnc3)C(=O)CCCCCCCC[C@@]3(OC)C=C/C(=C(/C(=O)OCc4cccnc4)C(=O)CCCCCCCC1)O3)O2,1890 nM,> 50 µM,1620 nM,6.75 µM,1490 nM,5.06 µM,1300 nM,> 50 µM,1470 nM,6.53 µM,2210 nM,> 50 µM,,,2080 nM,> 50 µM,1210 nM,4.34 µM,1460 nM,> 50
CCC(CCC(C)C1CCC2C3CC=C4CC(OC5OC(CO)C(O)C(O)C5O)CCC4(C)C3CCC12C)C(C)C (stereo not drawn),,> 100 µM,,> 100 µM,,> 100 µM,,> 100 µM,,> 100 µM,,> 100 µM,,> 100 µM,,> 100 µM,,> 100 µM,,
CNc1cc2nc3cc(NC)c(C)cc3cc2cc1C,2880 nM,17.1 µM,,,640 nM,2.35 µM,965 nM,20.8 µM,687 nM,10.9 µM,1100 nM,18.4 µM,514 nM,> 100 µM,1620 nM,7.6 µM,365 nM,13.3 µM,486 nM,> 100
